# From PMC6593727 (Clinical Pharmacology in Drug Development, 2019)
# Like-named read-outs stand apart in the source and are kept apart here.
# Columns and labels:
# [1] = ASP8477 steady‐state plasma PK in the cocktail study; format: in vivo, human; settings: for Ctrough: mean ± SD
# CYP3A4 [2] = target: T1, CYP3A4 (Homo sapiens, UniProt P08684)
# CYP2C8 = target: T2, CYP2C8 (Homo sapiens, UniProt P10632); assay: In vitro CYP inhibition studies in human liver microsomes using probe substrates; format: biochemical; settings: for R value (FDA): R = 1 + (total Cmax/Ki); for R value (EMA): R = unbound Cmax/Ki
# T2 sequence (P10632 1-490): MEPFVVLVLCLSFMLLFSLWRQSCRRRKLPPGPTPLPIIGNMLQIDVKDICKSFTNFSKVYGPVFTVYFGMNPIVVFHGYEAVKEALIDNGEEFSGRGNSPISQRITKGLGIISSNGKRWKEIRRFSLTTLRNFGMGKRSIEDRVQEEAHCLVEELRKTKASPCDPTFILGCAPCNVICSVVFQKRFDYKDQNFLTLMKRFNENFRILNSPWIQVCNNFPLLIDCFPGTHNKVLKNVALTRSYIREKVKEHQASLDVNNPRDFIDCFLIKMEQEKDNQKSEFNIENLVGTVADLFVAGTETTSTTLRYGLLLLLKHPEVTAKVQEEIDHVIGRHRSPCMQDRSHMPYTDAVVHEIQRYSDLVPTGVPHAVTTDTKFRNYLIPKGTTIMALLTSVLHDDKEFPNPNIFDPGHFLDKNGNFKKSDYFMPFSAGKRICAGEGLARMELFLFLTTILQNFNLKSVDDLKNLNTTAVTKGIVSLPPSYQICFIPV
# CYP2C9 [3] = target: T3, CYP2C9 (Homo sapiens, UniProt P11712); assay: as above; format: biochemical; settings: for R value (FDA): R = 1 + (total Cmax/Ki); for R value (EMA): R = unbound Cmax/Ki
# T3 sequence (P11712 whole entry): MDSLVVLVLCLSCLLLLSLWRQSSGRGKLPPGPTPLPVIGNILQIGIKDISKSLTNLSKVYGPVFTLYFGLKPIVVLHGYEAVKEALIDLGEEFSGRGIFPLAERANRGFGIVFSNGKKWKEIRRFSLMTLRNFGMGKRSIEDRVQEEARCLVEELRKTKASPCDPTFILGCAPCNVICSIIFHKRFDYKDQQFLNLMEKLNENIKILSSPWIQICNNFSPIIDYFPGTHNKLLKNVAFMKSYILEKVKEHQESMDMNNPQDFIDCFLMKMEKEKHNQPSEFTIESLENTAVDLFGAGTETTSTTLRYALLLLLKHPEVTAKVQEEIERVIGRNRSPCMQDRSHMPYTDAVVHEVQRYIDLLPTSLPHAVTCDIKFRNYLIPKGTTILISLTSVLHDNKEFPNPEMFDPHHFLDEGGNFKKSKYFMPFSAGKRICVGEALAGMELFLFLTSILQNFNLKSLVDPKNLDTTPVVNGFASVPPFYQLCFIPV
# CYP2D6 [4] = target: T4, CYP2D6 (Homo sapiens, UniProt P10635); assay: as above; format: biochemical; settings: for R value (FDA): R = 1 + (total Cmax/Ki); for R value (EMA): R = unbound Cmax/Ki
# T4 sequence (P10635 whole entry): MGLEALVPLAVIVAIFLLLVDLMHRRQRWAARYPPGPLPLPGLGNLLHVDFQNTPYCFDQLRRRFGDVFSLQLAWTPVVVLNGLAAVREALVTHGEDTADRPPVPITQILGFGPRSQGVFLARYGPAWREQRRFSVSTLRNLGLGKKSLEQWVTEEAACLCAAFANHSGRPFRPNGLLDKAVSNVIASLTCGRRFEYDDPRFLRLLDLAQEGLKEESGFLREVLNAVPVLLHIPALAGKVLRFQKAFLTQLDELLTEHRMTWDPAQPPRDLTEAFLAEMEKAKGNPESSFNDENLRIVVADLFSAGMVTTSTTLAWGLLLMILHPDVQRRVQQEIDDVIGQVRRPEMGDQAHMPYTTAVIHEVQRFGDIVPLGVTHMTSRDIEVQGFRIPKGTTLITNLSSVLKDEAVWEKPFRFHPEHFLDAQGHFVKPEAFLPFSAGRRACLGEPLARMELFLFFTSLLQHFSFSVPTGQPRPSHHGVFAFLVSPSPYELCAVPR
# [5] = ref clinical studies, cited from earlier work
# CYP3A4 [6] = target: T1, CYP3A4; assay: In vitro CYP inhibition studies in human liver microsomes using probe substrates; format: biochemical; settings: for R value (FDA): R = 1 + (total Cmax/Ki); for R value (EMA): R = unbound Cmax/Ki
# CYP2C9 [7] = target: T3, CYP2C9; assay: Inje cocktail DDI study: losartan and EXP‐3174 PK, assessment of CYP2C9 activity
# CYP2D6 [8] = target: T4, CYP2D6
# CYP2C19 [9] = target: T5, CYP2C19 (Homo sapiens, UniProt P33261)
# T5 sequence (P33261 whole entry): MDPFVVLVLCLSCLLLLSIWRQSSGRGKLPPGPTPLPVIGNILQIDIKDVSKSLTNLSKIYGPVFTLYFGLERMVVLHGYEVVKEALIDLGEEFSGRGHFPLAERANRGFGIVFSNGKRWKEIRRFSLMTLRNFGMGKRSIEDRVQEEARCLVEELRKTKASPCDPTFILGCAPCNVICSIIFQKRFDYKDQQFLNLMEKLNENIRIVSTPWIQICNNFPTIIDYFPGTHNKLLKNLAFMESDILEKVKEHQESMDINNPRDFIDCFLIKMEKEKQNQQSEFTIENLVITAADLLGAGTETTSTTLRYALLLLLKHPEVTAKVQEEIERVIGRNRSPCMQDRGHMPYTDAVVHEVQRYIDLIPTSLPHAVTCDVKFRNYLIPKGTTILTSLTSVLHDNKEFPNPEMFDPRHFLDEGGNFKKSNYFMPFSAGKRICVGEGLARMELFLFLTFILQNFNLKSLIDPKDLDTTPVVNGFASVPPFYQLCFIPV
# CYP enzymes = assay: Induction of CYP enzymes in vitro; format: in vitro ADME
# CYP2C19 [10] = target: T5, CYP2C19; assay: In vitro CYP inhibition studies in human liver microsomes using probe substrates; format: biochemical; settings: for R value (FDA): R = 1 + (total Cmax/Ki); for R value (EMA): R = unbound Cmax/Ki
# healthy female subjects = assay: Safety and tolerability: adverse events; format: in vivo, human
# [11] = Fraction of unbound ASP8477 in humans; format: in vitro ADME, human; settings: independent of the clinical concentration range
# [12] = female, human, plasma, oral, 20 mg
# [13] = female, human, plasma, oral, 60 mg
# [14] = female, human, plasma, oral, 100 mg
# T1 sequence (P08684 whole entry): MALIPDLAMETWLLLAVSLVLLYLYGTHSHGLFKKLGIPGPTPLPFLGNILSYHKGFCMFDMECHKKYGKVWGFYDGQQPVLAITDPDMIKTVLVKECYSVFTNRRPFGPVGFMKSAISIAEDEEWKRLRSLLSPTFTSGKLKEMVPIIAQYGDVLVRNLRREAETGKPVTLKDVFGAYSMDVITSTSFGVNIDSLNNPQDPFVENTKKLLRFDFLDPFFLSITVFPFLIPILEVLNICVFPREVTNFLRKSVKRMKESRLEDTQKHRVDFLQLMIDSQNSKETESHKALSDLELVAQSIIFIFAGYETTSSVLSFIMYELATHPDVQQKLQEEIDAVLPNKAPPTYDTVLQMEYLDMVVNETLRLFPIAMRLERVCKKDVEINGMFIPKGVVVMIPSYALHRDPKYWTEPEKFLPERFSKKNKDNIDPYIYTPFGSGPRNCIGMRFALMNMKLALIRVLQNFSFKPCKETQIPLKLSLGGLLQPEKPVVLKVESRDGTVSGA
smiles,measurement,setting,value
"O=C(Nc1ccccc1)C1CCN(C(=O)Oc2cccnc2)CC1 [ASP8477, 3‐pyridyl 4‐(phenylcarbamoyl)piperidine‐1‐carboxylate]",dose proportionality of Cmax and AUCtau,"[1]; 20, 60, 100 mg once daily",more than dose‐proportional
same,Ctrough,"[1]; Day 14, 60 mg ASP8477 qd",91 ± 110 ng/mL
same,Ctrough,"[1]; Day 23, 100 mg ASP8477 qd",740 ± 640 ng/mL
same,AUC,[1]; [12],1600 ± 710 ng·h/mL
same,Cmax,[1]; [12],400 ± 120 ng/mL
same,Tmax,[1]; [12],1 h
same,Cmax,[1]; [13],2000 ± 490 ng/mL
same,Tmax,[1]; [13],2 h
same,Cmax,[1]; [14],4200 ± 1200 ng/mL
same,Tmax,[1]; [14],2 h
same,"in vivo CYP inhibition class (FDA guidance, AUC of probe substrate)",CYP3A4 [2]; 60 mg dose level,weak (1.25‐ to <2‐fold)
same,"in vivo CYP inhibition class (FDA guidance, AUC of probe substrate)",CYP3A4 [2]; 100 mg dose level,weak (1.25‐ to <2‐fold)
same,overall in vivo inhibitor class,CYP3A4 [2]; doses from 20 to 100 mg,weak (1.25‐ to <2‐fold)
same,Ki,CYP2C8,15 µM
same,R value (FDA),CYP2C8; ASP8477 20 mg QD,1.074
same,R value (EMA),CYP2C8; ASP8477 20 mg QD,0.011
same,R value (FDA),CYP2C8; ASP8477 60 mg QD,1.385
same,R value (EMA),CYP2C8; ASP8477 60 mg QD,0.06
same,Ki,CYP2C9 [3],8 µM
same,R value (FDA),CYP2C9 [3]; ASP8477 20 mg QD,1.140
same,R value (EMA),CYP2C9 [3]; ASP8477 20 mg QD,0.021
same,R value (FDA),CYP2C9 [3]; ASP8477 60 mg QD,1.723
same,R value (EMA),CYP2C9 [3]; ASP8477 60 mg QD,0.11
same,Ki,CYP2D6 [4],9.8 µM
same,R value (FDA),CYP2D6 [4]; ASP8477 20 mg QD,1.114
same,R value (EMA),CYP2D6 [4]; ASP8477 20 mg QD,0.017
same,R value (FDA),CYP2D6 [4]; ASP8477 60 mg QD,1.590
same,R value (EMA),CYP2D6 [4]; ASP8477 60 mg QD,0.09
same,steady state achieved (mean trough concentration‐time profiles),[5]; 20 mg once daily,1 days
same,steady state achieved (mean trough concentration‐time profiles),[5]; 60 mg once daily,3 days
same,steady state achieved (mean trough concentration‐time profiles),[5]; 100 mg once daily,10 days
same,dose excreted in urine as unchanged drug,[5],Approximately 1%
same,Ki,CYP3A4 [6],18 µM
same,R value (FDA),CYP3A4 [6]; ASP8477 20 mg QD,1.062
same,R value (EMA),CYP3A4 [6]; ASP8477 20 mg QD,0.009
same,R value (FDA),CYP3A4 [6]; ASP8477 60 mg QD,1.321
same,R value (EMA),CYP3A4 [6]; ASP8477 60 mg QD,0.05
same,"in vivo CYP inhibition class (FDA guidance, AUC of probe substrate)",CYP2C9 [7]; 20 mg dose level,no effect
same,"in vivo CYP inhibition class (FDA guidance, AUC of probe substrate)",CYP2C9 [7]; 60 mg dose level,weak (1.25‐ to <2‐fold)
same,"in vivo CYP inhibition class (FDA guidance, AUC of probe substrate)",CYP2C9 [7]; 100 mg dose level,weak (1.25‐ to <2‐fold)
same,overall in vivo inhibitor class,CYP2C9 [7]; doses from 20 to 100 mg,weak (1.25‐ to <2‐fold)
same,"in vivo CYP inhibition class (FDA guidance, AUC of probe substrate)",CYP2D6 [8]; 20 mg dose level,weak (1.25‐ to <2‐fold)
same,"in vivo CYP inhibition class (FDA guidance, AUC of probe substrate)",CYP2D6 [8]; 60 mg dose level,moderate (2‐ to <5‐fold)
same,"in vivo CYP inhibition class (FDA guidance, AUC of probe substrate)",CYP2D6 [8]; 100 mg dose level,strong (≥5‐fold)
same,overall in vivo inhibitor class,CYP2D6 [8]; doses from 20 to 100 mg,weak to strong
same,"in vivo CYP inhibition class (FDA guidance, AUC of probe substrate)",CYP2C19 [9]; 20 mg dose level,moderate (2‐ to <5‐fold)
same,"in vivo CYP inhibition class (FDA guidance, AUC of probe substrate)",CYP2C19 [9]; 60 mg dose level,moderate (2‐ to <5‐fold)
same,"in vivo CYP inhibition class (FDA guidance, AUC of probe substrate)",CYP2C19 [9]; 100 mg dose level,strong (≥5‐fold)
same,overall in vivo inhibitor class,CYP2C19 [9]; doses from 20 to 100 mg,moderate to strong
same,effect on the induction of CYP enzymes,CYP enzymes,No clinically relevant effect
same,Ki,CYP2C19 [10],1 µM
same,R value (FDA),CYP2C19 [10]; ASP8477 20 mg QD,2.116
same,R value (EMA),CYP2C19 [10]; ASP8477 20 mg QD,0.167
same,R value (FDA),CYP2C19 [10]; ASP8477 60 mg QD,6.781
same,R value (EMA),CYP2C19 [10]; ASP8477 60 mg QD,0.87
same,tolerability,"healthy female subjects; ASP8477 in conjunction with cocktail probes, healthy female subjects",generally well tolerated
same,fatigue of moderate intensity (most frequent moderate AE),healthy female subjects; all dose levels,5 subjects
same,"discontinuation due to an AE (emotional lability, moderate)","healthy female subjects; day 15, at the 60 mg level",1 subject
same,AEs considered possibly or probably related to study drug,healthy female subjects; following 20 mg ASP8477,11 subjects
same,AEs considered possibly or probably related to study drug,healthy female subjects; following 60 mg ASP8477,11 subjects
same,AEs considered possibly or probably related to study drug,healthy female subjects; following 100 mg ASP8477,13 subjects
same,serious AEs or deaths,healthy female subjects; whole study,No serious AEs or deaths
same,fraction of unbound ASP8477,[11],15%
